In patent publication US20260116957A1, “PHARMACEUTICAL COMPOSITION FOR AMELIORATING ACUTE LUNG INJURY AND ACUTE WORSENING OF PULMONARY FIBROSIS” (priority 2021, published 2026):
Read-outs that look alike come from different tables or passages of the source. Residues, ends and D or L forms follow the SMILES beside them.

Experiments:
[1] = system: A549 alveolar epithelial cells; assay: Apoptosis assay of A549 cells (flow cytometry, annexin V / propidium iodide); type: cell-based, human; details: for apoptotic activity compared with the parent corisin sequence: single amino acid mutants, FIG. 35; for concentration at which apoptotic activity is shown: synthetic corisin
[2] = system: peptidase fraction prepared from Staphylococcus nepalensis culture supernatant (putative serine protease); type: biochemical
[3] = system: Caki-2, HaCaT, ARPE-19, Caco-2, HIEC-6 and ihPOD cells; assay: Caspase-3 cleavage by Western blotting in further epithelial cell lines; type: cell-based, human; details: 10 μg/mL peptide, 24 hours, all cell lines, vs scrambled peptide
Excerpt: Caki-2 cell line derived from proximal tubular epithelium, HaCaT keratinocyte cell line derived from adult skin, ARPE-19 retinal pigment epithelial cell line, Caco-2 cell line derived from colon cancer, and HIEC-6 cell line derived from normal human small intestinal epithelial cells were obtained from the American Type Culture Collection (American Type Culture Collection; Manassas, VA). RPMI 1640 culture medium was purchased from Sigma-Aldrich (St. Louis, Missouri) and fetal bovine serum (FBS) was purchased from Bio Whittaker (Bio Whittaker; Walkersville, Maryland). L-glutamine, penicillin, and streptomycin were obtained from Invitrogen (Carlsbad, California). Caki-2 cells, Caco-2 cells, and ihPOD cells were cultured in RPMI 1640 culture medium, HaCaT cells in DMEM culture medium, ARPE-19 cells in DMEM/F12 culture medium, and HIEC-6 cells in DMEM culture medium.
Each cell line was cultured until subconfluent to examine caspase-3 cleavage by Western blotting. […] Cells were stimulated with 10 μg/mL of a scrambled peptide, corisin, or corisin-like peptide, cultured for 24 hours, and then Western blotting was performed.

[4] = Half-life of corisin in A549 cell culture medium; details: A549 alveolar epithelial cell culture (cell supernatant), human alveolar (A549) cell culture system, read-out: half-life in the solution
Protocol: In order to ascertain how quickly corisin is metabolized in a cell culture system, the half-life of corisin was investigated. A549 alveolar epithelial cells were cultured in DMEM to which 10% fetal bovine serum had been added until confluent. Next, corisin was inoculated into a cell culture medium at a final concentration of 10 micrograms/mL, and cell supernatant was collected after 0, 1, 3, 6, 12, and 24 hours. The concentration of corisin was measured by an enzyme immunoassay method, and the half-life of corisin was examined. […] Therefore, serum corisin measurements should be performed immediately after the onset of acute exacerbation.

[5] = system: A549 alveolar epithelial cells; assay: RT-PCR of mRNA expression of pro-apoptotic and anti-apoptotic factors; type: cell-based, human; details: 50 μM corisin, 24 hours, vs scrambled peptides
Protocol: Next, the effect of corisin on mRNA expression of markers for pro-apoptotic factors such as Bax and anti-apoptotic factors BIRC1, BIRC5, BIRC7, Bcl2, BclXL, cyclin D1, proliferating cell nuclear antigens, and proliferating Ki-67 were examined. A549 alveolar epithelial cells were cultured in the presence of 50 μM corisin for 24 hours, total mRNA was extracted, and cDNA was prepared and amplified by RT-PCR.

[6] = system: TGFβ1 TG mice with pulmonary fibrosis; assay: Corisin-induced acute exacerbation of pulmonary fibrosis in TGFβ1 TG mice; type: in vivo, mouse; details: TGFβ1 TG mice with fibrosis treated with isotype antibody
Protocol: Next, TGFβ1 TG mice with pulmonary fibrosis were then assigned to two groups having corresponding computed tomography (CT) scan scores (FIG. 18a, b). CT examinations were performed as follows.
Lung CT was performed using a LaTheta LCT-200 micro CT purchased from Hitachi Aloka Medical (Tokyo, Japan). Mice were anesthetized by inhalation of isoflurane and then placed in the prone position to collect data (Non-Patent Literature 19, Reference Literature 61). Seven to nine specialists in pulmonary radiology, blinded to treatment groups, scored the CT findings on the TGFβ1 TG mice with pulmonary fibrosis based on previously reported and validated criteria as follows. Score 1, Normal lung findings; score 2, interim findings; score 3, mild pulmonary fibrosis; score 4, interim findings; score 5, moderate pulmonary fibrosis; score 6, interim findings; and score 7, progressive pulmonary fibrosis (Non-Patent Literature 19). The same criteria were used to score pulmonary inflammation and fibrosis in a BLM-induced pulmonary fibrosis mouse model (FIG. 21b).
A group of fibrosis-free TGFβ1 TG mice administered intratracheal corisin served as a control (FIG. 18a, b). […]

[7] = system: mice having established pulmonary fibrosis; details: cited from earlier work
[8] = system: mice with bleomycin-induced pulmonary fibrosis; assay: Intratracheal corisin in mice with bleomycin-induced pulmonary fibrosis; type: in vivo, mouse; details: for CT scores after intratracheal corisin: 300 pg/mouse on day 20
Excerpt: AE-Inducing Action of Corisin in Bleomycin-Induced Pulmonary Fibrosis Bleomycin (BLM)-induced pulmonary fibrosis in mice or rats is the most characterized and commonly used preclinical model for IPF studies (Reference Literature 28). It is unclear whether corisin exacerbates disease in BLM-induced pulmonary fibrosis. To address this question, an experimental model was developed in wild-type (WT) mice by infusing BLM via osmotic minipumps and administering corisin via intratracheal instillation (FIG. 21a). Bleomycin (BLM) or physiological saline (SAL) was infused from osmotic minipumps implanted subcutaneously in the backs of mice according to the experiment schedule for inducing acute exacerbation in mice with bleomycin-induced pulmonary fibrosis shown in FIG. 21a. Computed tomography (CT) scans were performed before and after intratracheal administration of corisin or a scrambled peptide before mouse euthanasia. Mice administered SAL via osmotic minipumps and intratracheal corisin or a scrambled peptide were used as a control. Mice were euthanized 22 days after BLM or SAL pump implantation.
After confirming pulmonary fibrosis onset by chest CT, autologous CT score criteria (FIG. 21b) were used to assign mice into two groups with concordant CT scores.
Wild-type (WT) mice were administered bleomycin (BLM) by osmotic minipump on day 0 and intratracheally instilled (75 μL) with corisin or a scrambled peptide (300 pg/mouse) on day 20 post-pump implantation. CTs were performed as described in Example 2. […] Next, wild-type (WT) mice were administered physiological saline (SAL) by osmotic minipump on day 0 and intratracheally instilled (75 μL) with corisin or a scrambled peptide (300 pg/mouse) on day 20 post-pump implantation.
Next, inflammatory cells and the like in mice with BLM-induced pulmonary fibrosis which had been administered intratracheal corisin were examined. Wild-type (WT) mice were administered bleomycin (BLM) or physiological saline (SAL) by osmotic minipump on day 0 and intratracheally instilled (75 μL) with corisin or a scrambled peptide ([…]) on day 20 post-pump implantation. BALF total cell counts were determined using a NucleoCounter and cell fraction counts were conducted after Giemsa staining using WindRoof image software. Levels of serum amyloid P component (SAP), MUC-1, monocyte chemoattractant protein-1 (MCP-1), periostin, collagen I, and osteopontin were measured by enzyme immunoassay according to the manufacturer's instructions.
Next, caspase-3 cleavage was evaluated by Western blotting and quantified. […] Collagen deposition was evaluated using Masson's trichrome staining and quantified using WindRoof imaging software. Pulmonary tissue content of hydroxyproline was measured by colorimetric analysis using a commercially available kit in accordance with the manufacturer's instructions. […] These findings indicate that corisin also exacerbates disease in BLM-induced pulmonary fibrosis.

[9] = BLM mice, 300 μg/mouse intratracheal, vs scrambled peptide
[10] = BLM mice, corisin vs scrambled peptide

## IVMPESSGNPNAVSPAGYR [corisin N14S]
[1]
  apoptotic activity compared with the parent corisin sequence: devoid of apoptotic activity

## O=C(O)CN(CCN(CC(=O)O)CC(=O)O)CC(=O)O [EDTA, ethylenediaminetetraacetic acid]
[2]
  suppression of transglycosylase degradation: neither E-64 nor EDTA suppressed transglycosylase degradation

## CC[C@H](C)[C@H](N)C(=O)N[C@H](C(=O)N[C@@H](CCSC)C(=O)N1CCC[C@H]1C(=O)N[C@@H](CCC(=O)O)C(=O)N[C@@H](CO)C(=O)N[C@@H](CO)C(=O)NCC(=O)N[C@@H](CC(N)=O)C(=O)N1CCC[C@H]1C(=O)N[C@@H](CC(N)=O)C(=O)N[C@@H](C)C(=O)N[C@H](C(=O)N[C@@H](CC(N)=O)C(=O)N1CCC[C@H]1C(=O)N[C@@H](C)C(=O)NCC(=O)N[C@@H](Cc1ccc(O)cc1)C(=O)N[C@@H](CCCNC(=N)N)C(=O)O)C(C)C)C(C)C [corisin, IVMPESSGNPNAVNPAGYR] (H-IVMPESSGNPNAVNPAGYR-OH; N-terminus and C-terminus assumed)
[3]
  cleavage of caspase-3: significantly increased
[4]
  half-life at 10 micrograms/mL: < 1 h
[5]
  mRNA expression of anti-apoptotic factors: significantly reduced
  mRNA expression of pro-apoptotic factors such as Bax and APAF-1: significantly increased
[6]
  CT findings after intratracheal corisin: significantly worse
[7]
  effect of intrapulmonary administration: causes apoptosis of alveolar epithelial cells and acute exacerbation (AE)
[8]; [9]
  circulation level of serum amyloid P component: increased
  level of MUC-1: increased
  level of collagen I: increased
  level of monocyte chemoattractant protein-1 (MCP-1): increased
  level of osteopontin: increased
  level of periostin: increased
  total number of lymphocytes in BALF: increased significantly
[8]; [10]
  collagen deposition in the lungs: increased
  hydroxyproline content in the lungs: increased
[8]; BLM mice, intratracheal corisin vs scrambled peptide
  caspase-3 cleavage (Western blotting): significantly increased
[8]; SAL pump mice without fibrosis
  changes in mice administered physiological saline via osmotic minipump: no significant changes
[8]; WT mice with BLM-induced pulmonary fibrosis
  CT scores after intratracheal corisin: worsened significantly
[8]; mice without pulmonary fibrosis (SAL pump)
  CT scores after intratracheal corisin: did not change
[1]
  concentration at which apoptotic activity is shown: 10 pg/mL
[1]; A549 cells
  concentration at which apoptotic activity is shown: 1e+07 pg/mL
[1]; synthetic peptides, A549 cells, FIG. 3
  apoptosis-inducing activity compared to the Staphylococcus haemolyticus peptide: slightly higher

## Cl.NCCc1ccc(S(=O)(=O)F)cc1 [Pefabloc SC]
[2]; 0.1, 0.3, 1 mM, 37° C. for 0.5, 1 and 2 hours
  suppression of transglycosylase degradation: suppress transglycosylase degradation

## IVMPESSGNPNAVNAAGYR [corisin P15A]
[1]
  apoptotic activity compared with the parent corisin sequence: devoid of apoptotic activity
